Publication PMC7170919, “The chloroalkaloid (−)-acutumine is biosynthesized via a Fe(II)- and 2-oxoglutarate-dependent halogenase in Menispermaceae plants” (Nature Communications, 2020)

Experiments:
Type in all cases: biochemical
SaDAH [1] = target: T1, SaDAH (Sinomenium acutum, UniProt A0A6M3RD65); experiment: LC-MS quantification of (−)-acutumine formed; conditions: 2OG 500 µM, NaCl 1 mM, ascorbate 5 mM, (NH4)2Fe(SO4)2 2 mM; 30 nM enzyme, 10 min; chlorination
T1 construct: codon-optimized, N-terminal 8xHis-TEV tag (pHis8-4) cleaved, E. coli BL21(DE3)
T1 sequence (A0A6M3RD65 entry or part of it): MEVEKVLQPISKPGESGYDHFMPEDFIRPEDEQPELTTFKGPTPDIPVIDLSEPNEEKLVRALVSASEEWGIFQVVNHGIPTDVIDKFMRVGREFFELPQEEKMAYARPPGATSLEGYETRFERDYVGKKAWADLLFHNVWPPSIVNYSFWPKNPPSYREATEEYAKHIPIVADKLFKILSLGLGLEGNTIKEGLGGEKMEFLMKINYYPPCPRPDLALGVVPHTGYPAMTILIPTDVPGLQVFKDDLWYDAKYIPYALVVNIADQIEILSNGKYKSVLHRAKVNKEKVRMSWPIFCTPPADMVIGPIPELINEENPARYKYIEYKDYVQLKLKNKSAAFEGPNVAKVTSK

SaDAH [2] = target: T2, SaDAH (Sinomenium acutum, UniProt A0A6M3RD65, G226D); experiment: in vitro enzyme assay, LC-HRAM-MS; conditions: 2OG 500 µM, NaCl 1 mM, Fe(II) 2 mM, ascorbate 5 mM, Tris pH 8.0, room temperature; hydroxylation
T2 construct: codon-optimized, N-terminal 8xHis-TEV tag (pHis8-4) cleaved, E. coli BL21(DE3)
T2 sequence (A0A6M3RD65 entry or part of it G226D): as the sequence (A0A6M3RD65 entry or part of it) above, with G226D counted along it

McDAH = target: T3, McDAH (Menispermum canadense, UniProt A0A6M3RHU8); experiment: in vitro enzyme assay, LC-MS; conditions: 2OG-dependent chlorination, 1 mM NaCl
T3 sequence (A0A6M3RHU8 1-351): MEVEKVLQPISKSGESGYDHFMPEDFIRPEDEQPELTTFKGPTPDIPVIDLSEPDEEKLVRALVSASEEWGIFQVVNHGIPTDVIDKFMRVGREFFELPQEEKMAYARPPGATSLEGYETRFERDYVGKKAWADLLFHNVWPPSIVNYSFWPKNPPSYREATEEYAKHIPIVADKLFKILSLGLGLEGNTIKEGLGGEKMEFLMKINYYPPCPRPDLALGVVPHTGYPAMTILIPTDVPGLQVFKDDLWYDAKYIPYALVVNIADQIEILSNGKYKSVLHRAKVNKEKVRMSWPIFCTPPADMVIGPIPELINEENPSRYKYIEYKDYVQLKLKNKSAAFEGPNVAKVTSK

- Km (SaDAH [1]): 18.4 ± 7.13 µM
Compound: COC1=CC(=O)C2(CCC34C(OC)=C(OC)C(=O)CC23CCN4C)C1O (single isomer, unassigned; (-)) [compound 5, (−)-dechloroacutumine]
- in vitro enzyme assay, LC-HRAM-MS (SaDAH [2]): exhibits exclusive (−)-dechloroacutumine hydroxylase activity to give the hydroxylation product 11-hydroxy-dechloroacutumine
- in vitro enzyme assay, LC-MS (McDAH): Recombinant McDAH exhibits identical activity to SaDAH
